Assay results: patent US20230391776A1, “AMIDE OXAZOLE COMPOUND” (MEDSHINE DISCOVERY INC., priority 2020, published 2023)
pIC50: −log10 of the molar value.

What was measured:
[1] = tested on: OCI-LY10 human diffuse large B lymphoma cells; assay: OCI-LY10 cell proliferation (Cell Titer Glo); type: cell-based; conditions: 72 hours
Description: The tumor cell lines OCI-LY10 and TMD-8 were used to detect the effect of the compound of the disclosure on inhibiting tumor cell proliferation in vitro.
OCI-LY10 human diffuse large B lymphoma cells, from Nanjing Cobioer Biotechnology Co., Ltd
The compound was diluted with DMSO to a final concentration of 10 mM. The compound was freshly prepared and ready for use.
a) Logarithmic growth period cells were collected, counted, resuspended with complete culture medium, the cell concentration was adjusted to an appropriate concentration (determined according to the results of cell density optimization test), inoculated on 96-well plates, and 100 μL of cell suspension was added to each well. Cells were incubated in an incubator with 37° C., 100% relative humidity and 5% CO2 for 24 hours.
b) The compound to be tested was diluted to 50 μM with culture medium and then gradient diluted for 8 times. Cells were added with 25 μL/well. The final concentrations of the compound were from […], 3-fold gradient dilution, with a total of 9 concentration points.
c) Cells were incubated in an incubator with 37° C., 100% relative humidity and 5% CO2 for 72 hours;
d) 60 μL of CTG test reagent was added to the culture medium.
e) Shaked fully and reacted in the dark for 10 min. Luminescence was measured on ENVISION and the inhibition rate was calculated.
Cell growth inhibition rate %=[(RLUv−RLUs)/(RLUv−RLUb)]×100%

[2] = Pharmacokinetic study of mice; type: in vivo; conditions: mouse, plasma, CD-1 male mice; for Vd / AUC(0-t) / clearance / half-life: IV 3 mg/kg; for Vd: read-out: Apparent volume of distribution Vdss; for AUC(0-t): read-out: Area under the plasma concentration-time curve AUC0-24h; for clearance: read-out: Clearance rate CL; for half-life: read-out: Half-life T1/2 (converted); for bioavailability / AUC / Cmax / Tmax: PO 10 mg/kg; for AUC: read-out: Area under the plasma concentration-time curve AUC; for Cmax: read-out: Peak concentration Cmax; for Tmax: read-out: Peak time Tmax
Description: The purpose of this experiment was to study the pharmacokinetics of the test compound in the plasma of CD-1 male mice after intravenous injection and oral administration.
Intravenous injection group: the tested compound was weighed and dissolved with 5% DMSO/10% Solutol/85% H2O, and the pH was adjusted to 4-5 with 6M hydrochloric acid, and a clear solution of 1.5 mg/mL was prepared by vortex, which was filtered by 0.22 m microporous membrane for later use. CD-1 male mice from 6 to 10 weeks old were selected and the test compound solution was injected intravenously at a dose of 3 mg/kg. The sample collection time was: 0.083, 0.25, 0.5, 1, 2, 4, 6, 8, 24 hours.
Oral administration group: the tested compound was weighed and dissolved with 5% DMSO/10% Solutol/85% H2O, the pH was adjusted to 3-4 with 6M hydrochloric acid, and a clear solution of 2.0 mg/mL was prepared by vortex for later use. CD-1 male mice from 6 to 10 weeks old were selected and the test compound was administered orally at a dose of 10 mg/kg. The sample collection time was: 0.25, 0.5, 1, 2, 4, 6, 8, 10, 24 hours.
Approximately 50 μL of whole blood was collected through the jugular vein at each time point for plasma preparation for concentration determination by high performance liquid chromatography-tandem mass spectrometry (LC-MS/MS). All animals were euthanized by CO2 anesthesia after collecting PK samples at the last time point. The non-atrioventricular model of WinnonLin™ Version 6.3 (Pharsight, Mountain View, CA) pharmacokinetic software was used to process the plasma concentration, and the pharmacokinetic parameters were calculated by linear logarithmic trapezoid method.

[3] = tested on: TNF-α production in THP-1 cells; assay: TNF-α ELISA in LPS-stimulated THP-1 cells; type: cell-based; conditions: Homo sapiens, TNF-α in supernatant, 150 ng/mL LPS, 18 hours
Description: THP-1 human acute single cell leukemia cells were purchased from ATCC (Cat #TIB-202) and cultured at 37° C. in 5% CO2 incubator. The composition of medium was RPMI1640 (Gibco, Cat #22400-105), and the supplementary compositions were 10% FBS (Gibco, Cat #10091148); 1% PenStrep (Gibco, Cat #15140); 0.05 mM β-mercaptoethanol (Sigma, Cat #M6250).
TNF-α Elisa kit was used to detect the content of TNF-α in cell culture supernatant samples. TNF-α was produced by stimulating THP-1 cells with 150 ng/mL LPS (Sigma, Cat #L6529).
THP-1 cells cultured normally at logarithmic growth period were seeded in a 96-well plate (Corning #3599) at a certain concentration (1*10^5/100 μL) and then put into a cell incubator for incubation. After two hours, 16.7 μL of different concentrations of the compound to be tested (8*final concentration) were added and incubated in an incubator. After one hour, 16.7 μL of 1200 ng/mL LPS was added and incubated in an incubator. After 18 hours, the culture supernatant samples were collected by centrifugation, and the content of TNF-α could be detected by TNF-α Elisa kit. Finally, OD signals (OD450-OD570) were read on envision board reader.
The OD450-OD570 signal value was converted into a percentage inhibition rate.
Inhibition rate %=(ZPE−sample)/(ZPE−HPE)*100.
“HPE” referred to the OD450-OD570 signal value of the control well without LPS stimulated cells, and “ZPE” referred to the OD450-OD570 signal value of the control well with LPS stimulated cells. The IC50 value of the compound was calculated by XLFit in the excel add-in.
Y=Bottom+(Top−Bottom)/(1+(IC50/X)^HillSlope). Equation: […]

Cc1cc(-c2nc(C(=O)Nc3cn4cc(C(C)(C)O)nc4cc3-c3ccccc3)co2)ccn1 [WX009]
pIC50 [1]: 7.32 | Vd [2]: 1.5 L/kg | AUC(0-t) [2]: 17.9 µM·h | clearance [2]: 5.9 mL/min/kg | half-life [2]: 486 min | bioavailability [2]: 78% | AUC [2]: 48 µM·h | Cmax [2]: 17.8 µM | Tmax [2]: 30 min | pIC50 [3]: 7.22

CC(C)(O)c1cn2cc(NC(=O)c3coc(-c4ccnc(N)c4)n3)c(-c3ccccc3)cc2n1 [WX017]
pIC50 [1]: 8.15 | Vd [2]: 0.5 L/kg | AUC(0-t) [2]: 7.67 µM·h | clearance [2]: 15.1 mL/min/kg | half-life [2]: 138 min | bioavailability [2]: 41% | AUC [2]: 10.4 µM·h | Cmax [2]: 6.52 µM | Tmax [2]: 48 min | pIC50 [3]: 7.80

CC(C)(O)c1cn2cc(NC(=O)c3coc(-c4ccnc(N)c4F)n3)c(-c3ccccc3)cc2n1 [WX027]
pIC50 [1]: 7.59 | Vd [2]: 0.8 L/kg | AUC(0-t) [2]: 3.77 µM·h | clearance [2]: 28.2 mL/min/kg | half-life [2]: 114 min | bioavailability [2]: 64% | AUC [2]: 8.08 µM·h | Cmax [2]: 4.93 µM | Tmax [2]: 18 min | pIC50 [3]: 7.38
